{
  "source": "patent US8163724B2",
  "about": "“Glucocorticosteroids, processes for their preparation, pharmaceutical compositions containing them and their use in therapy” (AstraZeneca AB, priority 2007, dated 2012)",
  "data": [
    {"target": "T1, recombinant human GR (Homo sapiens, UniProt P04150)", "T1 construct": "purchased Panvera/Invitrogen P2812 (kit P2893)", "T1 sequence (P04150 1-777)": "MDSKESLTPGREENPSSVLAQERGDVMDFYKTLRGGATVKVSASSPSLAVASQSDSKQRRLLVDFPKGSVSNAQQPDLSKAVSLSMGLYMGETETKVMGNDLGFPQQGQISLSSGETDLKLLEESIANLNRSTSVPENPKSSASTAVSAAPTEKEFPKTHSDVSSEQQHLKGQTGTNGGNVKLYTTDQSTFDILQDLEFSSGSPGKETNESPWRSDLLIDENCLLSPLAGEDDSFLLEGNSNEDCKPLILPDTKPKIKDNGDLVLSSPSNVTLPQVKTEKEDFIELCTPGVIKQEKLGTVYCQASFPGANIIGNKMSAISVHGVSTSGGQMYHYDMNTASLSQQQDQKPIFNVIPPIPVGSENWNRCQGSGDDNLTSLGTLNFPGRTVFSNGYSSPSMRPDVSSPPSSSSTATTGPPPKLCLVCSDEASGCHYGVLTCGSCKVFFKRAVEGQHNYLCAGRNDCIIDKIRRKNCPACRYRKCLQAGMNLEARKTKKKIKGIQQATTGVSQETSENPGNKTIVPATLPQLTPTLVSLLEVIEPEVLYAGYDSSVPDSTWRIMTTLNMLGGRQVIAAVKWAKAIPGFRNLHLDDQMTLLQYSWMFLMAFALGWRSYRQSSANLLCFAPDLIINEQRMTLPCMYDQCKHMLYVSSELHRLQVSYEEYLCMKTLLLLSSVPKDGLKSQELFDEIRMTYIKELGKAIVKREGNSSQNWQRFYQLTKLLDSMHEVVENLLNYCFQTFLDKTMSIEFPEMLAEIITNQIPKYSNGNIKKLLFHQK", "test": "Human Glucocorticoid Receptor (GR) Assay (fluorescence polarization, Panvera/Invitrogen kit)", "format": "binding", "details": "fluorescence polarization; GS Red tracer; 2 hours at room temperature; 100% control 10 μM Dexamethasone; read-out: Inhibition of GR binding, IC50", "how_it_was_run": "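Fluorescence polarization competition with recombinant GR and GS Red fluorescent ligand plus stabilizing peptide and DTT in potassium phosphate/sodium molybdate/EDTA buffer with DMSO. Incubated 2 hours at room temperature in the dark; 0% control DMSO, 100% control 10 μM dexamethasone.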", "units": {"IC50": "nM"}, "values": [
      {"compound": "C[C@]12Cc3cnn(-c4ccc(F)cc4)c3C=C1CC[C@@H]1[C@@H]2[C@@H](O)C[C@@]2(C)[C@H]1CC[C@]2(OC(=O)c1ccco1)C(=O)SCC(N)=O", "note": "[Example 90, (1R,3aS,3bS,10aR,10bS,11S,12aS)-1-{[(2-Amino-2-oxoethyl)sulfanyl]carbonyl}-7-(4-fluorophenyl)-11-hydroxy-10a,12a-dimethyl-1,2,3,3a,3b,4,5,7,10,10a,10b,11,12,12a-tetradecahydrocyclopenta[5,6]naphtho[1,2-f]indazol-1-yl furan-2-carboxylate]", "IC50": 4.6},
      {"compound": "C[C@]12Cc3cnn(-c4ccc(F)cc4)c3C=C1CC[C@@H]1[C@@H]2[C@@H](O)C[C@@]2(C)[C@H]1CC[C@]2(OC(=O)c1ccco1)C(=O)SCCO", "note": "[Example 91, (1R,3aS,3bS,10aR,10bS,11S,12aS)-7-(4-fluorophenyl)-11-hydroxy-1-{[(2-hydroxyethyl)sulfanyl]carbonyl}-10a,12a-dimethyl-1,2,3,3a,3b,4,5,7,10,10a,10b,11,12,12a-tetradecahydrocyclopenta[5,6]naphtho[1,2-f]indazol-1-yl furan-2-carboxylate]", "IC50": 3.7},
      {"compound": "C[C@]12Cc3cnn(-c4ccc(F)cc4)c3C=C1CC[C@@H]1[C@@H]2[C@@H](O)C[C@@]2(C)[C@H]1CC[C@]2(OC(=O)c1ccco1)C(=O)SCCCO", "note": "[Example 92, (1R,3aS,3bS,10aR,10bS,11S,12aS)-7-(4-Fluorophenyl)-11-hydroxy-1-{[(3-hydroxypropyl)sulfanyl]carbonyl}-10a,12a-dimethyl-1,2,3,3a,3b,4,5,7,10,10a,10b,11,12,12a-tetradecahydrocyclopenta[5,6]naphtho[1,2-f]indazol-1-yl furan-2-carboxylate]", "IC50": 4},
      {"compound": "COCSC(=O)[C@@]1(OC(=O)c2ccco2)CC[C@H]2[C@@H]3CCC4=Cc5c(cnn5-c5ccc(F)cc5)C[C@]4(C)[C@H]3[C@@H](O)C[C@@]21C", "note": "[Example 93, (1R,3aS,3bS,10aR,10bS,11S,12aS)-7-(4-Fluorophenyl)-11-hydroxy-1-{[(methoxymethyl)sulfanyl]carbonyl}-10a,12a-dimethyl-1,2,3,3a,3b,4,5,7,10,10a,10b,11,12,12a-tetradecahydrocyclopenta[5,6]naphtho[1,2-f]indazol-1-yl furan-2-carboxylate]", "IC50": 5.6},
      {"compound": "CC(=O)OCSC(=O)[C@@]1(OC(=O)c2ccco2)CC[C@H]2[C@@H]3CCC4=Cc5c(cnn5-c5ccc(F)cc5)C[C@]4(C)[C@H]3[C@@H](O)C[C@@]21C", "note": "[Example 94, (1R,3aS,3bS,10aR,10bS,11S,12aS)-1-({[(Acetyloxy)methyl]sulfanyl}carbonyl)-7-(4-fluorophenyl)-11-hydroxy-10a,12a-dimethyl-1,2,3,3a,3b,4,5,7,10,10a,10b,11,12,12a-tetradecahydrocyclopenta[5,6]naphtho[1,2-f]indazol-1-yl furan-2-carboxylate]", "IC50": 5.9},
      {"compound": "CCC(=O)O[C@]1(C(=O)SCCOC(C)=O)CC[C@H]2[C@@H]3CCC4=Cc5c(cnn5-c5ccc(F)cc5)C[C@]4(C)[C@H]3[C@@H](O)C[C@@]21C", "note": "[Example 95, (1R,3aS,3bS,10aR,10bS,11S,12aS)-1-({[2-(Acetyloxy)ethyl]sulfanyl}carbonyl)-7-(4-fluorophenyl)-11-hydroxy-10a,12a-dimethyl-1,2,3,3a,3b,4,5,7,10,10a,10b,11,12,12a-tetradecahydrocyclopenta[5,6]naphtho[1,2-f]indazol-1-yl propanoate]", "IC50": 4.7},
      {"compound": "CCC(=O)O[C@]1(C(=O)SCC#N)CC[C@H]2[C@@H]3CCC4=Cc5c(cnn5-c5ccc(F)nc5)C[C@]4(C)[C@H]3[C@@H](O)C[C@@]21C", "note": "[Example 97, (1R,3aS,3bS,10aR,10bS,11S,12aS)-1-{[(Cyanomethyl)sulfanyl]carbonyl}-7-(6-fluoropyridin-3-yl)-11-hydroxy-10a,12a-dimethyl-1,2,3,3a,3b,4,5,7,10,10a,10b,11,12,12a-tetradecahydrocyclopenta[5,6]naphtho[1,2-f]indazol-1-yl propanoate]", "IC50": 2.1},
      {"compound": "CCC(=O)O[C@]1(C(=O)SCOC)CC[C@H]2[C@@H]3CCC4=Cc5c(cnn5-c5ccc(F)nc5)C[C@]4(C)[C@H]3[C@@H](O)C[C@@]21C", "note": "[Example 98, (1R,3aS,3bS,10aR,10bS,11S,12aS)-7-(6-Fluoropyridin-3-yl)-11-hydroxy-1-{[(methoxymethyl)sulfanyl]carbonyl}-10a,12a-dimethyl-1,2,3,3a,3b,4,5,7,10,10a,10b,11,12,12a-tetradecahydrocyclopenta[5,6]naphtho[1,2-f]indazol-1-yl propanoate]", "IC50": 3.1},
      {"compound": "CCC(=O)O[C@]1(C(=O)SCF)CC[C@H]2[C@@H]3CCC4=Cc5c(cnn5-c5ccc(F)nc5)C[C@]4(C)[C@H]3[C@@H](O)C[C@@]21C", "note": "[Example 99, (1R,3aS,3bS,10aR,10bS,11S,12aS)-1-{[(Fluoromethyl)sulfanyl]carbonyl}-7-(6-fluoropyridin-3-yl)-11-hydroxy-10a,12a-dimethyl-1,2,3,3a,3b,4,5,7,10,10a,10b,11,12,12a-tetradecahydrocyclopenta[5,6]naphtho[1,2-f]indazol-1-yl propanoate]", "IC50": 2.1},
      {"compound": "C[C@]12Cc3cnn(-c4cccc(C(=O)N5CCOCC5)c4)c3C=C1CC[C@@H]1[C@@H]2[C@@H](O)C[C@@]2(C)[C@H]1CC[C@]2(OC(=O)c1ccco1)C(=O)SCF", "note": "[Example 100, (1R,3aS,3bS,10aR,10bS,11S,12aS)-1-{[(Fluoromethyl)thio]carbonyl}-11-hydroxy-10a,12a-dimethyl-7-[3-(morpholin-4-ylcarbonyl)phenyl]-1,2,3,3a,3b,4,5,7,10,10a,10b,11,12,12a-tetradecahydrocyclopenta[5,6]naphtho[1,2-f]indazol-1-yl furan-2-carboxylate]", "IC50": 2.7},
      {"compound": "C[C@]12Cc3cnn(-c4ccc(F)cc4F)c3C=C1CC[C@@H]1[C@@H]2[C@@H](O)C[C@@]2(C)[C@H]1CC[C@]2(OC(=O)c1ccco1)C(=O)SCC#N", "note": "[Example 101, (1R,3aS,3bS,10aR,10bS,11S,12aS)-1-{[(Cyanomethyl)thio]carbonyl}-7-(2,4-difluorophenyl)-11-hydroxy-10a,12a-dimethyl-1,2,3,3a,3b,4,5,7,10,10a,10b,11,12,12a-tetradecahydrocyclopenta[5,6]naphtho[1,2-f]indazol-1-yl furan-2-carboxylate]", "IC50": 29},
      {"compound": "C[C@]12Cc3cnn(-c4cc(F)cc(F)c4)c3C=C1CC[C@@H]1[C@@H]2[C@@H](O)C[C@@]2(C)[C@H]1CC[C@]2(OC(=O)c1ccco1)C(=O)SCC#N", "note": "[Example 102, (1R,3aS,3bS,10aR,10bS,11S,12aS)-1-{[(Cyanomethyl)thio]carbonyl}-7-(3,5-difluorophenyl)-11-hydroxy-10a,12a-dimethyl-1,2,3,3a,3b,4,5,7,10,10a,10b,11,12,12a-tetradecahydrocyclopenta[5,6]naphtho[1,2-f]indazol-1-yl furan-2-carboxylate]", "IC50": 8.2}
    ]}
  ]
}
